The target of this test is T1, human GLP-1R (Homo sapiens, UniProt P43220).
T1 construct: host or cells: HEK293
T1 sequence (P43220 24-463): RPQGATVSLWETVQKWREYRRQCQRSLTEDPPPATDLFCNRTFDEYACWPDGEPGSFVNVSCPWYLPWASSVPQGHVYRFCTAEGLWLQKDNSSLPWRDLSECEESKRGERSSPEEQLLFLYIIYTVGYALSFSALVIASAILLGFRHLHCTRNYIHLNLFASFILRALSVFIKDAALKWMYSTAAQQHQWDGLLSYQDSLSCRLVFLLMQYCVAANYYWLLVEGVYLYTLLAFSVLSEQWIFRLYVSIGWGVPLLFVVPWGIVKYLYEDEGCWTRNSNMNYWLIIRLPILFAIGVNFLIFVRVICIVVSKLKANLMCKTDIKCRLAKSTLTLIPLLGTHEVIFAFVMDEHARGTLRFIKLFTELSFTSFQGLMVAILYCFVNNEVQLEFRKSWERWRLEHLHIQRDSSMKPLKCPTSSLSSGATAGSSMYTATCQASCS
As to the kind of experiment: GLP-1R cAMP assay (Example B1a, HTRF, 30 min at room temperature). In kind it is cell-based. To be noted: cAMP accumulation in HEK293 expressing human GLP-1R, no BETP, 30 min room temperature (Method B1a, compounds ID 1-609), Table 1; read-out: EC50. The method, then: Assay was carried out with HEK293 expressing human GLP-1R using HTRF assay, developed by Wuxi Apptec. The method is a competitive assay between native cAMP produced by the cells and exogenous cAMP labeled with a proprietary dye d2. The tracer binding is visualized by a mAb anti-cAMP labeled with Cryptate. The signal (i.e. energy transfer) is inversely proportional to the concentration of CAMP in either standard or experimental sample. Compounds were tested in the absence of BETP. Ten microliter of cell suspension in assay buffer (5 mM HEPES, 500 μM IBMX, 0.1% BSA) were added to each well (1,000 cells per well) in a low volume 384-well plate for the assay. Serially diluted compounds were added in 100 nL volume to duplicate wells, by Labcyte Echo. GLP-1 (7-37) was used as positive control. Assay plate was incubated for 30 minutes at room temperature. Stock of cAMP Detection Solution was prepared by mixing 38 parts of cAMP lysis buffer, 1 part of cAMP-D2, 1 part of anti-cAMP cryptate reagent (Cisbio #62AM4PEJ). Ten microliter of the cAMP Detection Solution was added to each well, and the assay plate was incubated for 1 hour at room temperature in the dark. Plates were read on Envision plate reader. The data were analyzed by ScreenUltra in Dotmatics, with % activation expressed using following formula: (Well data−negative control)/(postive control−negative control)*100. Dose response curves were plotted and EC50 values calculated by non-linear regression using 4-parameter fit.
Turning to `Cc1cc(-n2nc3c(c2-n2ccn(-c4ccc5c(cnn5C)c4F)c2=O)[C@@H]2CC[C@H](C3)N2C(=O)c2cc3ccc(C4CCOCC4)cc3nc2C2(c3noc(=O)[nH]3)CC2C)cc(C)c1F` (single isomer, unassigned) [Compound 237], the EC50 was found to be 123 nM.
Regarding `Cc1cc(-n2nc3c(c2-n2cc(-c4ccc5c(cnn5C)c4F)nn2)[C@H](C)N(C(=O)c2cc4cc([C@H]5CCOC(C)(C)C5)ccc4n2[C@@]2(c4noc(=O)[nH]4)C[C@@H]2C)CC3)cc(C)c1F` [Compound 1, 3-((1S,2S)-1-(5-((S)-2,2-dimethyltetrahydro-2H-pyran-4-yl)-2-((S)-3-(4-(4-fluoro-1-methyl-1H-indazol-5-yl)-1H-1,2,3-triazol-1-yl)-2-(4-fluoro-3,5-dimethylphenyl)-4-methyl-4,5,6,7-tetrahydro-2H-pyrazolo[4,3-c]pyridine-5-carbonyl)-1H-indol-1-yl)-2-methylcyclopropyl)-1,2,4-oxadiazol-5 (4H)-one], the concentration for a half-maximal effect (EC50) is more than 10000 nM.
On to `Cc1cc(-n2nc3c(c2-c2nnc(-c4ccc5c(cnn5C)c4F)o2)[C@H](C)N(C(=O)c2cc4cc([C@H]5CCOC(C)(C)C5)ccc4n2[C@@]2(c4noc(=O)[nH]4)C[C@@H]2C)CC3)cc(C)c1F` [Compound 5, 3-((1S,2S)-1-(5-((S)-2,2-dimethyltetrahydro-2H-pyran-4-yl)-2-((S)-3-(5-(4-fluoro-1-methyl-1H-indazol-5-yl)-1,3,4-oxadiazol-2-yl)-2-(4-fluoro-3,5-dimethylphenyl)-4-methyl-4,5,6,7-tetrahydro-2H-pyrazolo[4,3-c]pyridine-5-carbonyl)-1H-indol-1-yl)-2-methylcyclopropyl)-1,2,4-oxadiazol-5 (4H)-one], for which the half-maximal effective concentration (EC50) was more than 10000 nM.
For `Cc1cc(-n2nc3c(c2-c2ncn(-c4ccc5c(cnn5C)c4F)c2C)[C@H](C)N(C(=O)c2cc4cc([C@H]5CCOC(C)(C)C5)ccc4n2[C@@]2(c4noc(=O)[nH]4)C[C@@H]2C)CC3)cc(C)c1F` [Compound 15, 3-((1S,2S)-1-(5-((S)-2,2-dimethyltetrahydro-2H-pyran-4-yl)-2-((S)-3-(1-(4-fluoro-1-methyl-1H-indazol-5-yl)-5-methyl-1H-imidazol-4-yl)-2-(4-fluoro-3,5-dimethylphenyl)-4-methyl-4,5,6,7-tetrahydro-2H-pyrazolo[4,3-c]pyridine-5-carbonyl)-1H-indol-1-yl)-2-methylcyclopropyl)-1,2,4-oxadiazol-5 (4H)-one], the concentration giving a half-maximal response (EC50) was found to be 584 nM.
Next, `Cc1cc(-n2nc3c(c2-c2nc(-c4ccc5c(cnn5C)c4F)cn2C)[C@H](C)N(C(=O)c2cc4cc([C@H]5CCOC(C)(C)C5)ccc4n2[C@@]2(c4noc(=O)[nH]4)C[C@@H]2C)CC3)cc(C)c1F` [Compound 21, 3-((1S,2S)-1-(5-((S)-2,2-dimethyltetrahydro-2H-pyran-4-yl)-2-((S)-3-(4-(4-fluoro-1-methyl-1H-indazol-5-yl)-1-methyl-1H-imidazol-2-yl)-2-(4-fluoro-3,5-dimethylphenyl)-4-methyl-4,5,6,7-tetrahydro-2H-pyrazolo[4,3-c]pyridine-5-carbonyl)-1H-indol-1-yl)-2-methylcyclopropyl)-1,2,4-oxadiazol-5 (4H)-one]: 591 nM; `Cc1cc(-n2nc3c(c2N2C(=O)CN(c4ccc5c(cnn5C)c4F)C2=O)[C@H](C)N(C(=O)c2cc4cc([C@H]5CCOC(C)(C)C5)ccc4n2[C@@]2(c4noc(=O)[nH]4)C[C@@H]2C)CC3)cc(C)c1F` [Compound 23, 3-((S)-5-(5-((S)-2,2-dimethyltetrahydro-2H-pyran-4-yl)-1-((1S,2S)-2-methyl-1-(5-oxo-4,5-dihydro-1,2,4-oxadiazol-3-yl)cyclopropyl)-1H-indole-2-carbonyl)-2-(4-fluoro-3,5-dimethylphenyl)-4-methyl-4,5,6,7-tetrahydro-2H-pyrazolo[4,3-c]pyridin-3-yl)-1-(4-fluoro-1-methyl-1H-indazol-5-yl) imidazolidine-2,4-dione]: 361 nM.

The record behind these values is US12617783B2, “Heterocyclic GLP-1R agonists” (BIOMEA FUSION, INC., priority 2024, dated 2026).
